Data: US20240132431A1, “METHOD FOR ALKYLATING ACIDIC FUNCTIONAL GROUP” (Chugai Seiyaku Kabushiki Kaisha, priority 2021, published 2024)

Molecular target: T1, Bcl-2 protein (Recombinant Human Bcl-2 Protein) (Homo sapiens, UniProt P10415)
T1 construct: purchased Novus NBP2-34889
Assay: Binding evaluation of mixture library compounds to Bcl-2 using AS-MS (affinity selection mass spectrometry)
Settings: for ASMS ratio (%) n = 1 / ASMS ratio (%) n = 2: ASMS Ratio(%)=(A−C)/B×100; for ASMS ratio (%) n = 1: replicate n = 1; for ASMS ratio (%) n = 2: replicate n = 2
Outline: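 Bcl-2 binding is scored from LC/MS signal retained with protein through gel-filtration spin columns, normalised to unfiltered and protein-free controls. Incubation: 20 μM protein, […] per compound, 1 h, 23° C.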

[1] = AS-MS, mixture of 1200 compounds, Bcl-2
[2] = AS-MS on the mixture of 1200 library compounds

T1 sequence (P10415 whole entry): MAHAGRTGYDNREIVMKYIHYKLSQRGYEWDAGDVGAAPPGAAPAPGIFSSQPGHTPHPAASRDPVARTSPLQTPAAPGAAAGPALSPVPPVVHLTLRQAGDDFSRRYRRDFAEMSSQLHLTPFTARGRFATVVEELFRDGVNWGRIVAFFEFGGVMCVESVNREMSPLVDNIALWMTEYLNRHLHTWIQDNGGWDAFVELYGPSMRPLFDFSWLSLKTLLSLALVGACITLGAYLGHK

Compound	ASMS ratio (%) n = 1 [1] [%]	ASMS ratio (%) n = 2 [1] [%]	ASMS ratio (%) n = 1 [2] [%]	ASMS ratio (%) n = 2 [2] [%]	other results
4-[4-[1-[4-(3-Ethoxyphenyl)phenyl]ethyl]piperazin-1-yl]-N-propylbenzamide [B1M003-01]	−1.9	2.0			
CCOc1cccc(-c2ccc(CN3CCN(c4ccc(C(=O)NS(=O)(=O)CCC(F)(F)F)cc4)CC3)cc2F)c1 [B2N051-01, 4-[4-[[4-(3-Ethoxyphenyl)-3-fluorophenyl]methyl]piperazin-1-yl]-N-(3,3,3-trifluoropropylsulfonyl)benzamide]					ASMS ratio (%) (n = 1): 0.0%; ASMS ratio (%) (n = 2): 0.0%
CCOc1cccc(-c2cc(CN3CCN(c4ccc(C(=O)N(C)CC56CC7CC(CC(C7)C5)C6)nn4)CC3)cc(OC(F)(F)F)c2)c1 [B3A089-01, N-(1-Adamantylmethyl)-6-[4-[[3-(3-ethoxyphenyl)-5-(trifluoromethoxy)phenyl]methyl]piperazin-1-yl]-N-methylpyridazine-3-carboxamide]			−5.5	−7.2	
CCOc1cncc(-c2csc(CN3CCN(c4ccc(C(=O)NS(=O)(=O)CCC(F)(F)F)nn4)CC3)c2)c1 [B2N094-01, 6-[4-[[4-(5-Ethoxypyridin-3-yl)thiophen-2-yl]methyl]piperazin-1-yl]-N-(3,3,3-trifluoropropylsulfonyl)pyridazine-3-carboxamide]					ASMS ratio (%) (n = 1): 0.0%; ASMS ratio (%) (n = 2): 0.0%
CCOc1cccc(-c2cc(OC)c(CN3CCN(c4ccc(C(=O)NCC56CC7CC(CC(C7)C5)C6)cc4)CC3)c(OC)c2)c1 [B1A059-01, N-(1-Adamantylmethyl)-4-[4-[[4-(3-ethoxyphenyl)-2,6-dimethoxyphenyl]methyl]piperazin-1-yl]benzamide]	7.7	−5.5			
CCOc1cncc(-c2cnn(-c3cc(C(=O)N4CCN(c5ccc(C(=O)NS(=O)(=O)c6ccc(NCCSc7ccccc7)c([N+](=O)[O-])c6)cc5)CC4)cc(C(F)(F)F)c3)c2)c1 [B2Q044-01, 4-[4-[3-[4-(5-Ethoxypyridin-3-yl)pyrazol-1-yl]-5-(trifluoromethyl)benzoyl]piperazin-1-yl]-N-[3-nitro-4-(2-phenylsulfanylethylamino)phenyl]sulfonylbenzamide]					ASMS ratio (%) n = 1 (AS-MS, mixture library, Bcl-2): 11.0%; ASMS ratio (%) n = 2 (AS-MS, mixture library, Bcl-2): −1.3%
CCOc1cncc(C#Cc2ccccc2C(=O)N2CCN(c3ccc(C(=O)N(CC)CC)cc3)CC2)c1 [B4J030-01, 4-[4-[2-[2-(5-Ethoxypyridin-3-yl)ethynyl]benzoyl]piperazin-1-yl]-N,N-diethylbenzamide]			0.1	0.8	
CCOc1cccc(-c2ccccc2CCC(=O)N2CCN(c3ccc(C(=O)NCC45CC6CC(CC(C6)C4)C5)cc3)CC2)c1 [B1A033-01, N-(1-Adamantylmethyl)-4-[4-[3-[2-(3-ethoxyphenyl)phenyl]propanoyl]piperazin-1-yl]benzamide]	3.3	−13.3			
CCOc1cccc(-c2ccc(C(C)N3CCN(c4ccc(C(=O)N(CC)CC)cc4)CC3)cc2)c1 (stereo not shown) [B4J097-01, 4-[4-[1-[4-(3-Ethoxyphenyl)phenyl]ethyl]piperazin-1-yl]-N,N-diethylbenzamide]					ASMS ratio (%) n = 1 (AS-MS, mixture library, Bcl-2): −0.9%; ASMS ratio (%) n = 2 (AS-MS, mixture library, Bcl-2): −0.4%
CCOc1cncc(-c2cc(CN3CCN(c4ccc(C(=O)N(C)CC56CC7CC(CC(C7)C5)C6)nn4)CC3)cc(OC(F)(F)F)c2)c1 [B3A090-01, N-(1-Adamantylmethyl)-6-[4-[[3-(5-ethoxypyridin-3-yl)-5-(trifluoromethoxy)phenyl]methyl]piperazin-1-yl]-N-methylpyridazine-3-carboxamide]			5.8	−0.2	
CCOc1cccc(-c2csc(C(=O)N3CCN(c4ccc(C(=O)NCC56CC7CC(CC(C7)C5)C6)nn4)CC3)c2)c1 [B1A001-01, N-(1-Adamantylmethyl)-6-[4-[4-(3-ethoxyphenyl)thiophene-2-carbonyl]piperazin-1-yl]pyridazine-3-carboxamide]	17.6	−0.7			
CCOc1cccc(-c2csc(C(=O)N3CCN(c4ccc(C(=O)NCC56CC7CC(CC(C7)C5)C6)cc4)CC3)c2)c1 [B1A023-01, N-(1-Adamantylmethyl)-4-[4-[4-(3-ethoxyphenyl)thiophene-2-carbonyl]piperazin-1-yl]benzamide]	4.0	0.8			
CCOc1cccc(C#Cc2cncc(C(=O)N3CCN(c4ccc(C(=O)NCC56CC7CC(CC(C7)C5)C6)cc4)CC3)c2)c1 [B1A031-01, N-(1-Adamantylmethyl)-4-[4-[5-[2-(3-ethoxyphenyl)ethynyl]pyridine-3-carbonyl]piperazin-1-yl]benzamide]	6.9	−1.8			
CCOc1cncc(C#Cc2ccccc2CN2CCN(c3ccc(C(=O)NS(=O)(=O)CC45CC6CC(CC(C6)C4)C5)cc3)CC2)c1 [B2A070-01, N-(1-Adamantylmethylsulfonyl)-4-[4-[[2-[2-(5-ethoxypyridin-3-yl)ethynyl]phenyl]methyl]piperazin-1-yl]benzamide]					ASMS ratio (%) n = 2 (AS-MS, mixture library, Bcl-2): 0.0%
CCOc1cccc(-c2ccccc2CCC(=O)N2CCN(c3ccc(C(=O)N(CC)CC)nn3)CC2)c1 [B4J011-01, 6-[4-[3-[2-(3-Ethoxyphenyl)phenyl]propanoyl]piperazin-1-yl]-N,N-diethylpyridazine-3-carboxamide]			−0.1	−0.9	
CCOc1cncc(-c2cc(CN3CCN(c4ccc(C(=O)NS(=O)(=O)c5ccc(NCCSc6ccccc6)c([N+](=O)[O-])c5)cc4)CC3)cc(C(F)(F)F)c2)c1 [B2Q062-01, 4-[4-[[3-(5-Ethoxypyridin-3-yl)-5-(trifluoromethyl)phenyl]methyl]piperazin-1-yl]-N-[3-nitro-4-(2-phenylsulfanylethylamino)phenyl]sulfonylbenzamide]					ASMS ratio (%) n = 1 (AS-MS, mixture library, Bcl-2): 9.4%; ASMS ratio (%) n = 2 (AS-MS, mixture library, Bcl-2): −3.3%
CCOc1cccc(-c2cc(C(=O)N3CCN(c4ccc(C(=O)NCC56CC7CC(CC(C7)C5)C6)nn4)CC3)cc(C(F)(F)F)c2)c1 [B1A017-01, N-(1-Adamantylmethyl)-6-[4-[3-(3-ethoxyphenyl)-5-(trifluoromethyl)benzoyl]piperazin-1-yl]pyridazine-3-carboxamide]	5.4	5.4			
CCOc1cncc(C#Cc2cc(C(=O)N3CCN(c4ccc(C(=O)NS(=O)(=O)CC56CC7CC(CC(C7)C5)C6)nn4)CC3)cc(C(F)(F)F)c2)c1 [B2A020-01, N-(1-Adamantylmethylsulfonyl)-6-[4-[3-[2-(5-ethoxypyridin-3-yl)ethynyl]-5-(trifluoromethyl)benzoyl]piperazin-1-yl]pyridazine-3-carboxamide]					ASMS ratio (%) n = 1 (AS-MS, mixture library, Bcl-2): 3.4%; ASMS ratio (%) n = 2 (AS-MS, mixture library, Bcl-2): 8.9%
CCOc1cccc(-c2ccc(CN3CCN(c4ccc(C(=O)N(CC)CC)nn4)CC3)cc2F)c1 [B4J077-01, 6-[4-[[4-(3-Ethoxyphenyl)-3-fluorophenyl]methyl]piperazin-1-yl]-N,N-diethylpyridazine-3-carboxamide]					ASMS ratio (%) n = 1 (AS-MS, mixture library, Bcl-2): 1.2%; ASMS ratio (%) n = 2 (AS-MS, mixture library, Bcl-2): −5.5%
CCOc1cncc(-c2ccc(CN3CCN(c4ccc(C(=O)N(CC)CC)cc4)CC3)cc2C)c1 [B4J048-01, 4-[4-[[4-(5-Ethoxypyridin-3-yl)-3-methylphenyl]methyl]piperazin-1-yl]-N,N-diethylbenzamide]			1.2	−2.1	
CCOc1cccc(-c2ccc(C(C)N3CCN(c4ccc(C(=O)N(CC)CC)cc4)CC3)c(F)c2)c1 (stereo not shown) [B4J099-01, 4-[4-[1-[4-(3-Ethoxyphenyl)-2-fluorophenyl]ethyl]piperazin-1-yl]-N,N-diethylbenzamide]					ASMS ratio (%) n = 2 (AS-MS, mixture library, Bcl-2): 0.0%

Second part, led by results:

ASMS ratio (%) n = 1 [1] [%]	ASMS ratio (%) n = 2 [1] [%]	ASMS ratio (%) n = 1 [2] [%]	ASMS ratio (%) n = 2 [2] [%]	Compound	other results
		6.8	2.0	CCOc1cncc(-c2cc(CN3CCN(c4ccc(C(=O)Nc5ccc(OC)cc5)nn4)CC3)cc(OC(C)C)c2)c1 [B1O084-01]	
		0.0	0.0	CCOc1cccc(-c2ccccc2CN2CCN(c3ccc(C(=O)Nc4ccc(OC)cc4)cc3)CC2)c1 [B1O045-01, 4-[4-[[2-(3-Ethoxyphenyl)phenyl]methyl]piperazin-1-yl]-N-(4-methoxyphenyl)benzamide]	
0.0	0.0			CCOc1cncc(-c2ccccc2CN2CCN(c3ccc(C(=O)NCC45CC6CC(CC(C6)C4)C5)cc3)CC2)c1 [B1A046-01, N-(1-Adamantylmethyl)-4-[4-[[2-(5-ethoxypyridin-3-yl)phenyl]methyl]piperazin-1-yl]benzamide]	
		4.7	−1.7	CCOc1cccc(-c2cc(C(=O)N3CCN(c4ccc(C(=O)Nc5ccc(OC)cc5)cc4)CC3)cc(C(C)(C)C)c2)c1 [B1O037-01, 4-[4-[3-tert-Butyl-5-(3-ethoxyphenyl)benzoyl]piperazin-1-yl]-N-(4-methoxyphenyl)benzamide]	
−0.1	0.5			CCOc1cncc(-c2ccccc2CN2CCN(c3ccc(C(=O)NCC(F)(F)F)cc3)CC2)c1 [B1K046-01, 4-[4-[[2-(5-Ethoxypyridin-3-yl)phenyl]methyl]piperazin-1-yl]-N-(2,2,2-trifluoroethyl)benzamide]	
		12.1	2.7	CCOc1cncc(-c2ccc(CN3CCN(c4ccc(C(=O)Nc5ccc(OC)cc5)cc4)CC3)c3ccccc23)c1 [B1O066-01, 4-[4-[[4-(5-Ethoxypyridin-3-yl)naphthalen-1-yl]methyl]piperazin-1-yl]-N-(4-methoxyphenyl)benzamide]	
